Columns and labels:
[1] = test system: human monocyte-derived macrophages; assay: Cytotoxicity, AlamarBlue method; format: cell-based; conditions: human, 3 days
Experimental: (§1) The blood was collected from healthy donors and the peripheral blood mononuclear cells were isolated by Ficoll-Paque Plus (GE Healthcare, Freiburg, Germany) density gradient centrifugation as previously described ([Machado et al., 2016]). […] Fresh medium was added at day 4 post isolation. The effect of the compounds on human monocyte-derived macrophages was evaluated using the AlamarBlue method (Molecular Probes, Life Technologies) ([O’Brien et al., 2000]), and by measuring the release of the lactate dehydrogenase (LDH) into the culture supernatants using the Pierce LDH Cytotoxicity Assay (ThermoFisher Scientific, Waltham, MA, USA) ([Chan, Moriwaki & Rosa, 2013]) according to the manufacturer’s instructions. Briefly, 5 × 10^4 cells were seeded in 96-well microplates treated with the compounds, and incubated at 37 °C with 5% CO2. After 72 h of treatment, the cell viability was assessed. For the AlamarBlue method, the dye was added to each well to a final concentration of 10% and incubated overnight at 37 °C and 5% CO2. The fluorescence was measured with a 540/35 excitation filter and a 590/20 emission filter in a Synergy HT multi-mode microplate reader. The release of LDH from damaged cells into culture supernatants, as an indicator of cytotoxicity, was measured in serum-free medium. Here the amount of enzyme activity correlates to the number of damaged cells. The specific lysis was calculated as follows: (treated cells—spontaneous LDH release)/ (maximum LDH release—spontaneous LDH release) ×100.

[2] = test system: human monocyte-derived macrophages; assay: Cytotoxicity, LDH release; format: cell-based; conditions: human, 3 days
Experimental: as §1

E. coli AG100A = assay: EtBr efflux by real-time fluorometry; conditions: 20 µM
Experimental: Control tubes with only cells and cells with and without 0.4% glucose were included. The fluorescence was measured in a Rotor-Gene 3000 and the data was acquired every 30 s for 30 min at 37 °C. The efflux activity was quantified by comparing the fluorescence data obtained under conditions that promote efflux (presence of glucose and absence of efflux inhibitor) with the data from the control in which the bacteria are under conditions of no efflux (presence of an inhibitor and no energy source).

CN(C)CCCN1c2ccccc2Sc2ccc(Cl)cc21 [CPZ, chlorpromazine]
CC10 [1]: 13.36 µM
LDH release ([2]; 1.25 µM): 0.95%
LDH release ([2]; 20 µM): 24%
EtBr fluorescence (Channel Cycling A.530/585hp) (E. coli AG100A; cycle 1, + glucose): 3.827
EtBr fluorescence (Channel Cycling A.530/585hp) (E. coli AG100A; cycle 1, without glucose): 4.231
EtBr fluorescence (Channel Cycling A.530/585hp) (E. coli AG100A; cycle 2, + glucose): 3.676
EtBr fluorescence (Channel Cycling A.530/585hp) (E. coli AG100A; cycle 2, without glucose): 4.204
EtBr fluorescence (Channel Cycling A.530/585hp) (E. coli AG100A; cycle 3, + glucose): 3.648
EtBr fluorescence (Channel Cycling A.530/585hp) (E. coli AG100A; cycle 3, without glucose): 4.237
EtBr fluorescence (Channel Cycling A.530/585hp) (E. coli AG100A; cycle 4, without glucose): 4.314
EtBr fluorescence (Channel Cycling A.530/585hp) (E. coli AG100A; cycle 5, without glucose): 4.267
EtBr fluorescence (Channel Cycling A.530/585hp) (E. coli AG100A; cycle 6, without glucose): 4.36
EtBr fluorescence (Channel Cycling A.530/585hp) (E. coli AG100A; cycle 7, without glucose): 4.4
EtBr fluorescence (Channel Cycling A.530/585hp) (E. coli AG100A; cycle 8, without glucose): 4.486
EtBr fluorescence (Channel Cycling A.530/585hp) (E. coli AG100A; cycle 9, + glucose): 3.606
EtBr fluorescence (Channel Cycling A.530/585hp) (E. coli AG100A; cycle 9, without glucose): 4.551
EtBr fluorescence (Channel Cycling A.530/585hp) (E. coli AG100A; cycle 10, + glucose): 3.712
EtBr fluorescence (Channel Cycling A.530/585hp) (E. coli AG100A; cycle 10, without glucose): 4.522
EtBr fluorescence (Channel Cycling A.530/585hp) (E. coli AG100A; cycle 11, + glucose): 3.667
EtBr fluorescence (Channel Cycling A.530/585hp) (E. coli AG100A; cycle 11, without glucose): 4.614
EtBr fluorescence (Channel Cycling A.530/585hp) (E. coli AG100A; cycle 12, + glucose): 3.687
EtBr fluorescence (Channel Cycling A.530/585hp) (E. coli AG100A; cycle 12, without glucose): 4.652
EtBr fluorescence (Channel Cycling A.530/585hp) (E. coli AG100A; cycle 13, + glucose): 3.761
EtBr fluorescence (Channel Cycling A.530/585hp) (E. coli AG100A; cycle 13, without glucose): 4.775
EtBr fluorescence (Channel Cycling A.530/585hp) (E. coli AG100A; cycle 14, + glucose): 3.711
EtBr fluorescence (Channel Cycling A.530/585hp) (E. coli AG100A; cycle 14, without glucose): 4.879
EtBr fluorescence (Channel Cycling A.530/585hp) (E. coli AG100A; cycle 15, + glucose): 3.685
EtBr fluorescence (Channel Cycling A.530/585hp) (E. coli AG100A; cycle 15, without glucose): 4.89
EtBr fluorescence (Channel Cycling A.530/585hp) (E. coli AG100A; cycle 16, + glucose): 3.729
EtBr fluorescence (Channel Cycling A.530/585hp) (E. coli AG100A; cycle 16, without glucose): 4.933
EtBr fluorescence (Channel Cycling A.530/585hp) (E. coli AG100A; cycle 17, + glucose): 3.749
EtBr fluorescence (Channel Cycling A.530/585hp) (E. coli AG100A; cycle 17, without glucose): 4.963
EtBr fluorescence (Channel Cycling A.530/585hp) (E. coli AG100A; cycle 18, + glucose): 3.817
EtBr fluorescence (Channel Cycling A.530/585hp) (E. coli AG100A; cycle 18, without glucose): 5.023
EtBr fluorescence (Channel Cycling A.530/585hp) (E. coli AG100A; cycle 19, + glucose): 3.768
EtBr fluorescence (Channel Cycling A.530/585hp) (E. coli AG100A; cycle 19, without glucose): 5.067
EtBr fluorescence (Channel Cycling A.530/585hp) (E. coli AG100A; cycle 20, + glucose): 3.821
EtBr fluorescence (Channel Cycling A.530/585hp) (E. coli AG100A; cycle 20, without glucose): 5.072
EtBr fluorescence (Channel Cycling A.530/585hp) (E. coli AG100A; cycle 21, + glucose): 3.796
EtBr fluorescence (Channel Cycling A.530/585hp) (E. coli AG100A; cycle 21, without glucose): 5.224
EtBr fluorescence (Channel Cycling A.530/585hp) (E. coli AG100A; cycle 22, + glucose): 3.843
EtBr fluorescence (Channel Cycling A.530/585hp) (E. coli AG100A; cycle 22, without glucose): 5.19
EtBr fluorescence (Channel Cycling A.530/585hp) (E. coli AG100A; cycle 23, + glucose): 3.825
EtBr fluorescence (Channel Cycling A.530/585hp) (E. coli AG100A; cycle 23, without glucose): 5.293
EtBr fluorescence (Channel Cycling A.530/585hp) (E. coli AG100A; cycle 24, + glucose): 3.796
EtBr fluorescence (Channel Cycling A.530/585hp) (E. coli AG100A; cycle 24, without glucose): 5.381
EtBr fluorescence (Channel Cycling A.530/585hp) (E. coli AG100A; cycle 25, + glucose): 3.807
EtBr fluorescence (Channel Cycling A.530/585hp) (E. coli AG100A; cycle 25, without glucose): 5.403
EtBr fluorescence (Channel Cycling A.530/585hp) (E. coli AG100A; cycle 26, + glucose): 3.836
EtBr fluorescence (Channel Cycling A.530/585hp) (E. coli AG100A; cycle 26, without glucose): 5.546
EtBr fluorescence (Channel Cycling A.530/585hp) (E. coli AG100A; cycle 27, + glucose): 3.8908
EtBr fluorescence (Channel Cycling A.530/585hp) (E. coli AG100A; cycle 27, without glucose): 5.462
EtBr fluorescence (Channel Cycling A.530/585hp) (E. coli AG100A; cycle 28, + glucose): 3.846
EtBr fluorescence (Channel Cycling A.530/585hp) (E. coli AG100A; cycle 28, without glucose): 5.551
EtBr fluorescence (Channel Cycling A.530/585hp) (E. coli AG100A; cycle 29, + glucose): 3.901
EtBr fluorescence (Channel Cycling A.530/585hp) (E. coli AG100A; cycle 29, without glucose): 5.7035
EtBr fluorescence (Channel Cycling A.530/585hp) (E. coli AG100A; cycle 30, + glucose): 3.8738
EtBr fluorescence (Channel Cycling A.530/585hp) (E. coli AG100A; cycle 30, without glucose): 5.804
EtBr fluorescence (Channel Cycling A.530/585hp) (E. coli AG100A; cycle 31, + glucose): 3.964
EtBr fluorescence (Channel Cycling A.530/585hp) (E. coli AG100A; cycle 31, without glucose): 5.758
EtBr fluorescence (Channel Cycling A.530/585hp) (E. coli AG100A; cycle 32, + glucose): 3.895
EtBr fluorescence (Channel Cycling A.530/585hp) (E. coli AG100A; cycle 32, without glucose): 5.843
EtBr fluorescence (Channel Cycling A.530/585hp) (E. coli AG100A; cycle 33, + glucose): 3.921
EtBr fluorescence (Channel Cycling A.530/585hp) (E. coli AG100A; cycle 33, without glucose): 5.872
EtBr fluorescence (Channel Cycling A.530/585hp) (E. coli AG100A; cycle 34, + glucose): 3.877
EtBr fluorescence (Channel Cycling A.530/585hp) (E. coli AG100A; cycle 34, without glucose): 5.974
EtBr fluorescence (Channel Cycling A.530/585hp) (E. coli AG100A; cycle 35, + glucose): 3.838
EtBr fluorescence (Channel Cycling A.530/585hp) (E. coli AG100A; cycle 35, without glucose): 6.003
EtBr fluorescence (Channel Cycling A.530/585hp) (E. coli AG100A; cycle 36, + glucose): 3.873
EtBr fluorescence (Channel Cycling A.530/585hp) (E. coli AG100A; cycle 36, without glucose): 6.052
EtBr fluorescence (Channel Cycling A.530/585hp) (E. coli AG100A; cycle 37, + glucose): 3.865
EtBr fluorescence (Channel Cycling A.530/585hp) (E. coli AG100A; cycle 37, without glucose): 6.051
EtBr fluorescence (Channel Cycling A.530/585hp) (E. coli AG100A; cycle 38, + glucose): 3.927
EtBr fluorescence (Channel Cycling A.530/585hp) (E. coli AG100A; cycle 38, without glucose): 6.151
EtBr fluorescence (Channel Cycling A.530/585hp) (E. coli AG100A; cycle 39, + glucose): 3.914
EtBr fluorescence (Channel Cycling A.530/585hp) (E. coli AG100A; cycle 39, without glucose): 6.208
EtBr fluorescence (Channel Cycling A.530/585hp) (E. coli AG100A; cycle 40, + glucose): 4.038
EtBr fluorescence (Channel Cycling A.530/585hp) (E. coli AG100A; cycle 40, without glucose): 6.311
EtBr fluorescence (Channel Cycling A.530/585hp) (E. coli AG100A; cycle 41, + glucose): 3.929
EtBr fluorescence (Channel Cycling A.530/585hp) (E. coli AG100A; cycle 41, without glucose): 6.369
EtBr fluorescence (Channel Cycling A.530/585hp) (E. coli AG100A; cycle 42, + glucose): 3.925
EtBr fluorescence (Channel Cycling A.530/585hp) (E. coli AG100A; cycle 42, without glucose): 6.396
EtBr fluorescence (Channel Cycling A.530/585hp) (E. coli AG100A; cycle 43, + glucose): 3.906
EtBr fluorescence (Channel Cycling A.530/585hp) (E. coli AG100A; cycle 43, without glucose): 6.421
EtBr fluorescence (Channel Cycling A.530/585hp) (E. coli AG100A; cycle 44, + glucose): 3.836
EtBr fluorescence (Channel Cycling A.530/585hp) (E. coli AG100A; cycle 44, without glucose): 6.524
EtBr fluorescence (Channel Cycling A.530/585hp) (E. coli AG100A; cycle 45, without glucose): 6.6507
EtBr fluorescence (Channel Cycling A.530/585hp) (E. coli AG100A; cycle 46, without glucose): 6.69
EtBr fluorescence (Channel Cycling A.530/585hp) (E. coli AG100A; cycle 47, without glucose): 6.633
EtBr fluorescence (Channel Cycling A.530/585hp) (E. coli AG100A; cycle 48, without glucose): 6.748
EtBr fluorescence (Channel Cycling A.530/585hp) (E. coli AG100A; cycle 49, without glucose): 6.869
EtBr fluorescence (Channel Cycling A.530/585hp) (E. coli AG100A; cycle 50, without glucose): 6.908
EtBr fluorescence (Channel Cycling A.530/585hp) (E. coli AG100A; cycle 51, without glucose): 6.927
EtBr fluorescence (Channel Cycling A.530/585hp) (E. coli AG100A; cycle 52, without glucose): 6.871
EtBr fluorescence (Channel Cycling A.530/585hp) (E. coli AG100A; cycle 53, without glucose): 6.976
EtBr fluorescence (Channel Cycling A.530/585hp) (E. coli AG100A; cycle 54, without glucose): 6.9692
EtBr fluorescence (Channel Cycling A.530/585hp) (E. coli AG100A; cycle 55, without glucose): 7.074
EtBr fluorescence (Channel Cycling A.530/585hp) (E. coli AG100A; cycle 56, without glucose): 7.021
EtBr fluorescence (Channel Cycling A.530/585hp) (E. coli AG100A; cycle 57, without glucose): 7.172
EtBr fluorescence (Channel Cycling A.530/585hp) (E. coli AG100A; cycle 58, without glucose): 7.396
EtBr fluorescence (Channel Cycling A.530/585hp) (E. coli AG100A; cycle 59, without glucose): 7.291
EtBr fluorescence (Channel Cycling A.530/585hp) (E. coli AG100A; cycle 60, without glucose): 7.378
EtBr fluorescence (Channel Cycling A.530/585hp) (E. coli AG100A; cycle 61, without glucose): 7.37

Source: PMC5433425 (PeerJ, 2017)
